The experiment deals with S. cerevisiae Burl-1 ts mutant growth, BacTiter-Glo, 38.5C 24 h. Put plainly: growth induction of Burl-1 ts yeast mutant, dose response, counter-screen for SUMOylation pathway inhibitor project, whole organism, S. cerevisiae, luminescence (AID 463199).

The source made the active and inactive calls.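 How the source made its calls: active means AC50, the dose giving half-maximal effect, exceeds a fixed cutoff for a compound that rescues yeast growth under heat; inactive means the rest, inconclusive results apart.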

One may read the AC50 as the midpoint of the concentration-response curve, whichever way the signal moves.

On to `CCOc1cc(/C=C2\NC(=O)NC2=O)ccc1OC(C)C(=O)O` (stereo not given), for which the AC50 is > 42 µM (inactive).

On to `CN1CCN(C(=O)CCN2C(=O)/C(=C/c3ccccc3Cl)SC2=S)CC1`, for which the AC50 is > 42 µM (inactive).

Turning to `O=C1N=C(N2CCN(c3ccccc3)CC2)SC1Cc1ccccc1` (stereo not given), the AC50 was > 42 µM (inactive).

`O=C(c1ccc(F)cc1)C(CN1CCOCC1)c1ccccc1` (stereo not given): the AC50 was > 42 µM (inactive).

Take `COc1ccc(NC(=O)C2CCCN2S(=O)(=O)c2cccc3cccnc23)cc1OC` (stereo not given): the AC50 was > 42 µM (inactive).

For the compound `CC(=O)Nc1sc2c(c1C(c1ccc(F)cc1)N1CCOCC1)CCCC2` (stereo not given), the AC50 was > 42 µM (inactive).

Turning to `CN1C(C(=O)Nc2ccccn2)=C(O)c2sccc2S1(=O)=O`, the AC50 was > 42 µM (inactive).

For the compound `Cc1cccc(C)c1NS(=O)(=O)c1ccc(OCCNS(C)(=O)=O)cc1`, the AC50 was > 42 µM (inactive).

As for `O=C(CSCc1ccc(Cl)cc1)N1CCCCC1`, the AC50 is > 42 µM (inactive).

With `COC(=O)c1ccc(CSc2nnnn2-c2ccccc2)o1`, the AC50 is > 42 µM (inactive).

As for `O=C(Nc1nc(-c2ccccn2)cs1)c1ccc2c(c1)OCCO2`, the AC50 was > 42 µM (inactive).

Consider `NC(=S)N/N=C/c1cccc(O)c1O`, for which the AC50 was > 42 µM (inactive).

In the case of `CC(=O)NCc1c(Cl)cccc1-n1cccc1`, the AC50 is > 42 µM (inactive).

Take `CCOC(=O)C1CCN(C(=O)COc2ccc(S(=O)(=O)N3CCOCC3)cc2C)CC1`: the AC50 was > 42 µM (inactive).

Regarding `O=C(NCc1ccccc1Cl)c1ccc2c(c1)OCO2`, the AC50 is > 42 µM (inactive).

With `C=CCC(NCCCO)c1cccc(OC)c1OC` (stereo not given), the AC50 is > 42 µM (inactive).

Regarding `CCOC(=O)N1CCN(S(=O)(=O)c2ccc(C)c(C)c2)CC1`, the AC50 was > 42 µM (inactive).

For the compound `CCOC(=O)N1CCN(C(=O)CNC(=O)c2nn(-c3ccc(OC)c(OC)c3)c(=O)c3ccccc23)CC1`, the AC50 was > 42 µM (inactive).

Take `c1ccc(CCCc2nc(-c3cccnc3)no2)cc1`: the AC50 is > 42 µM (inactive).

Consider `COc1ccc(CN(C)S(=O)(=O)c2nnc(NC(=O)c3ccc(C)cc3)s2)cc1OC`, for which the AC50 is > 42 µM (inactive).

With `CN(C(=O)c1cncc(Br)c1)C1C2CC3CC(C2)CC1C3` (stereo not given), the AC50 was 8.94 µM.

`Cc1ccccc1-c1nnc(SCc2ccc(F)cc2)o1`: the AC50 was > 42 µM (inactive).

With `COc1ccc(CN(CC(=O)NCC2CCCO2)C(=O)CCC(=O)Nc2cc(C)on2)cc1` (stereo not given), the AC50 was > 42 µM (inactive).

On to `CC(=O)c1ccc(N2CCN(CC(=O)Nc3cc(C)on3)CC2)cc1`, for which the AC50 is > 42 µM (inactive).

For the compound `O=C1CN(C(=O)COC(=O)c2cccc(S(=O)(=O)NCc3ccccc3)c2)c2ccccc2N1`, the AC50 is > 42 µM (inactive).

In the case of `COCCNC(=O)C(=O)N/N=C(\C)CC(=O)Nc1cccc(C(F)(F)F)c1`, the AC50 was > 42 µM (inactive).

Turning to `CCN(C(=O)COC(=O)c1c(-c2ccccc2)noc1C)c1c(N)n(Cc2ccccc2)c(=O)[nH]c1=O`, the AC50 is > 42 µM (inactive).

Turning to `CSc1nnc2c3cc(C)ccc3n(Cc3ccccc3)c2n1`, the AC50 was > 42 µM (inactive).

Consider `O=C1CC(=O)C(n2cncn2)C(c2ccc(Cl)cc2Cl)C1` (stereo not given), for which the AC50 was > 42 µM (inactive).

`O=C1NC(=O)C(=Cc2ccc(N3CCOCC3)cc2)C(=O)N1`: the AC50 was > 42 µM (inactive).

Turning to `C/C=C/C(=O)N1c2ccc(C)cc2C(C)=CC1(C)C`, the AC50 is > 42 µM (inactive).

Regarding `COc1cccc(NC(=O)c2nn(C34CC5CC(CC(C5)C3)C4)cc2[N+](=O)[O-])c1`, the AC50 was > 42 µM (inactive).

For the compound `CCN1CCN(CC(=O)N2N=CCC2c2ccccc2)CC1` (stereo not given), the AC50 was > 42 µM (inactive).

Take `Cc1nc2sc(C(c3ccco3)N3CCOCC3)c(O)n2n1` (stereo not given): the AC50 is > 42 µM (inactive).

Consider `Cc1c(=O)n(OCc2ccccn2)c2ccccc2[n+]1[O-]`, for which the AC50 is > 42 µM (inactive).

Consider `CCSc1nc2ccccc2c(=O)n1C1CCOC(C)(C)C1` (stereo not given), for which the AC50 was > 42 µM (inactive).

For `O=C(Nc1nccs1)c1ccc(S(=O)(=O)c2ccccc2)cc1`, the AC50 is > 42 µM (inactive).

As to `CC(C)Cc1cc(CN2CCC(CO)(Cc3ccccc3)CC2)[nH]n1`, the AC50 was > 42 µM (inactive).

On to `O=C(NCC1CCCO1)c1nn2c(C(F)(F)F)cc(-c3cc(Br)cs3)nc2c1Br` (stereo not given), for which the AC50 was > 42 µM (inactive).

Regarding `Cc1nn(CC(N)=O)c(=O)c2ccccc12`, the AC50 was > 42 µM (inactive).

In the case of `OC(c1ccccc1)(C1CCCCC1)C(CN1CCOCC1)c1ccccc1` (stereo not given), the AC50 is > 42 µM (inactive).

In the case of `O=S1(=O)C=C(Sc2nnc(-c3ccccc3)o2)c2ccccc21`, the concentration at half-maximal activity (AC50) was 8.23 µM.

For `Cc1ccc(/C=C/C(=O)O)cc1S(=O)(=O)N(CCO)CCO`, the AC50 is > 42 µM (inactive).

In the case of `COc1cc2c(cc1OC)C(c1ccc(SC)cc1)CC(=O)N2` (stereo not given), the AC50 is > 42 µM (inactive).

On to `COC(=O)CCC(=O)OC1(C)C(=O)C=C2C=C(C3CC3)N(Cc3ccc4c(c3)OCO4)C=C2C1=O` (stereo not given), for which the AC50 is > 42 µM (inactive).

For the compound `CCNC(=O)NC1c2ccccc2CSc2ccccc21` (stereo not given), the AC50 is > 42 µM (inactive).

With `Cc1cc(NC(=O)CSc2ncn(-c3ccccc3)n2)no1`, the AC50 is > 42 µM (inactive).

Take `Nc1nc2ccccc2cc1-c1cccs1`: the AC50 is > 42 µM (inactive).

Consider `CC(OC(=O)c1cnccn1)C(=O)c1ccccc1` (stereo not given), for which the AC50 is > 42 µM (inactive).

For the compound `COc1ccccc1N1CCN(C(=O)C2CCN(S(=O)(=O)c3ccc(C)cc3)CC2)CC1`, the AC50 is > 42 µM (inactive).

Take `C/C(CC1(O)C(=O)Nc2ccccc21)=N\O` (stereo not given): the AC50 is > 42 µM (inactive).

In the case of `COc1ccc(NC(=O)CN(C)C(=O)c2cc(C)on2)cc1`, the AC50 was > 42 µM (inactive).

Consider `O=C(NNC(=O)c1ccccc1O)c1ccco1`, for which the AC50 was > 42 µM (inactive).

Turning to `C=CCN1C(=O)/C(=C2/Sc3ccc(OC)cc3N2C)SC1=Nc1ccccc1`, the AC50 is > 42 µM (inactive).

On to `Cc1sc2ncn(C(C)C(=O)OC3CCCCC3)c(=O)c2c1C` (stereo not given), for which the AC50 is > 42 µM (inactive).

Regarding `N#C/C(=C\c1cc([N+](=O)[O-])c(N2CCOCC2)cc1N1CCOCC1)c1nc2ccccc2[nH]1`, the AC50 is > 42 µM (inactive).

Take `COCCCNC(=O)c1cc2cc([N+](=O)[O-])cc(OC)c2oc1=O`: the AC50 is > 42 µM (inactive).

As to `Cc1c(C(=O)N2CCN(CCc3ccccc3)CC2)oc2ccccc12`, the AC50 is > 42 µM (inactive).

For the compound `Cc1ccc2nc(NC(=O)C3CCN(S(=O)(=O)c4cccnc4)CC3)sc2c1`, the AC50 is > 42 µM (inactive).

As to `Cc1c(C(=O)NC(=S)Nc2ccccc2N2CCCC2)cccc1[N+](=O)[O-]`, the AC50 was > 42 µM (inactive).

On to `CCCC1Cc2c(sc3ncnc(N)c23)CO1` (stereo not given), for which the AC50 is 9.15 µM.

For `Cn1c(SCC(=O)Nc2nnc(-c3ccccc3)o2)nnc1C1CC1`, the AC50 was > 42 µM (inactive).

For the compound `O=C(Oc1ccccc1N1C(=O)C2CC=CCC2C1=O)c1ccc(Br)cc1` (stereo not given), the AC50 was > 42 µM (inactive).

`CCCN(CC1CC1)C(=O)COc1ccccc1C(=O)NCc1ccccc1`: the AC50 was > 42 µM (inactive).

In the case of `CCOc1ccc(N2CC(C(=O)OC)CC2=O)cc1` (stereo not given), the AC50 was > 42 µM (inactive).

The values are drawn from PubChem BioAssay AID463199 (Broad Institute, 2010).
